Experimental data: ChEMBL document CHEMBL4007391, “Tackling Fungal Resistance by Biofilm Inhibitors” (J Med Chem, 2017)
In brackets after ≈: the same amount, converted by molar mass. Counter-ions that a name gives are not always drawn.

Columns and labels:
Candida albicans [1] = test: Antibiofilm activity against Candida albicans CAIF-100 after 24 hrs by Cell-Titer Blue assay; type: functional
Candida albicans [2] = test: Antibiofilm activity against Candida albicans SC5314 clinical isolates after 24 hrs by XTT assay; type: functional
Candida albicans [3] = test: Antibiofilm activity against Candida albicans SC5314 after 24 hrs by Cell-Titer Blue assay; type: functional
Candida albicans [4] = test: Antibiofilm activity against Candida albicans SC5314 after 24 hrs by XTT assay; type: functional; conditions: SC5314, 24 h
[5] = Cytotoxicity against human HepG2 assessed as reduction in cell viability after 24 hrs by CellTiter-Glo luminescent assay; type: cell-based; conditions: HepG2 cells
Candida albicans [6] = test: Antibiofilm activity against Candida albicans SC5314 after 24 hrs in presence of miconazole by Cell-Titer Blue assay; type: functional
Candida albicans [7] = test: Inhibition of biofilm formation of fluconazole-resistant Candida albicans at 2 to 4 ug/ml after 24 hrs by XTT assay; type: functional
Candida albicans [8] = test: Antifungal activity against fluconazole-resistant Candida albicans after 48 hrs by broth microdilution assay; type: functional
Candida albicans [9] = test: Disruption of biofilm of fluconazole-resistant Candida albicans at 8 to 32 ug/ml after 24 hrs by XTT assay; type: functional
Candida albicans [10] = test: Antibiofilm activity against Candida albicans DAY185 after 24 hrs by XTT assay; type: functional
Candida albicans [11] = test: Antifungal activity against Candida albicans DAY185 by CLSI method; type: functional
Candida albicans [12] = test: Antifungal activity against fluconazole-resistant Candida albicans by broth microdilution assay; type: functional
Candida albicans [13] = test: Antifungal activity against fluconazole-susceptible Candida albicans by broth microdilution assay; type: functional
Candida albicans [14] = test: Antibiofilm activity against Candida albicans CAF2-1 after 48 hrs by Alamar blue assay; type: functional; conditions: CAF2-1, 48 h
Candida albicans [15] = test: Antibiofilm activity against fluconazole-resistant Candida albicans 29E clinical isolates after 48 hrs by Alamar blue assay; type: functional
Candida albicans [16] = test: Antibiofilm activity against Candida albicans SC5314 after 48 hrs by Alamar blue assay; type: functional; conditions: SC5314, 48 h
Candida [17] = test: Antifungal activity against drug-resistant Candida spp. clinical isolates after 48 hrs by broth microdilution assay; type: functional
Candida [18] = test: Antifungal activity against Candida after 48 hrs by broth microdilution assay; type: functional

CN(C)CCOc1ccc(/C(=C(/CCCl)c2ccccc2)c2ccccc2)cc1.O=C(O)CC(O)(CC(=O)O)C(=O)O [TOREMIFENE CITRATE]
MBIC50 (Candida albicans [1]): 19.5 µM

Oc1c(Cl)cc(Cl)c(Cl)c1Cc1c(O)c(Cl)cc(Cl)c1Cl [HEXACHLOROPHENE]
IC50 (Candida albicans [2]; Candida albicans, SC5314, 24 h): 5.1 µM | MBEC2 (Candida albicans [3]): 9.3 µM

CC[C@H](C)[C@H](N)C1=N[C@H](C(=O)N[C@@H](CC(C)C)C(=O)N[C@H](CCC(=O)O)C(=O)N[C@@H](C(=O)N[C@@H]2CCCCNC(=O)[C@H](CC(N)=O)NC(=O)[C@@H](CC(=O)O)NC(=O)[C@H](Cc3cnc[nH]3)NC(=O)[C@@H](Cc3ccccc3)NC(=O)[C@H]([C@@H](C)CC)NC(=O)[C@@H](CCCN)NC2=O)[C@@H](C)CC)CS1
IC50 (Candida albicans [4]): 2.13 µM | CC50 at 24 h [5]: 286 µM

C[C@H]1[C@H](OC(=O)CCC(=O)O)O[C@@H]2O[C@@]3(C)CC[C@H]4[C@H](C)CC[C@@H]1[C@@]24OO3 [ARTESUNATE]
fractional inhibitory concentration index (FICI) (Candida albicans [6]): <0.069

Cc1c(CN2CCC3(CCCN(Cc4ccc(C(C)C)cc4)C3=O)C2)cnn1C (centres undefined)
IC50 (Candida albicans [4]): 3.15 µM | CC50 at 24 h [5]: 62.7 to 104 µM

CC[C@H](C)C1NC(=O)[C@@H](CCCN)NC(=O)[C@@H](NC(=O)[C@@H](NC(=O)[C@@H](CCC(=O)O)NC(=O)[C@H](CC(C)C)NC(=O)[C@@H]2CSC([C@@H](N)[C@@H](C)CC)=N2)[C@@H](C)CC)CCCCNC(=O)[C@H](CC(N)=O)NC(=O)[C@@H](CC(=O)O)NC(=O)[C@H](Cc2c[nH]cn2)NC(=O)[C@@H](Cc2ccccc2)NC1=O (some centres undefined)
IC50 (Candida albicans [2]; Candida albicans, SC5314, 24 h): 17 µM

THIMEROSAL
IC50 (Candida albicans [2]): 0.2 µM

Cc1ncc(CN2CCC3(CCCN(Cc4ccc(C(C)C)cc4)C3=O)C2)cn1 (centres undefined)
IC50 (Candida albicans [4]): 2.7 µM | CC50 at 24 h [5]: 62.7 to 104 µM

N=C(NCCCCCCNC(=N)NC(=N)Nc1ccc(Cl)cc1)NC(=N)Nc1ccc(Cl)cc1 [CHLORHEXIDINE]
IC50 (Candida albicans [2]; Candida albicans, SC5314, 24 h): 21.8 µM

CCCCCCCCCCCCCCCCOP(=O)([O-])OCC[N+](C)(C)C [MILTEFOSINE]
inhibition (INH) (Candida albicans [7]): 90% | MIC (Candida albicans [8]): 0.5 to 2 mg/L (≈ 1.23 to 4.91 µM) | inhibition (INH) (Candida albicans [9]): >90%

CCCCC(CC)CNC(=N)NC(=N)NCCCCCCNC(=N)NC(=N)NCC(CC)CCCC (centres undefined) [ALEXIDINE DIHYDROCHLORIDE]
IC50 (Candida albicans [2]; Candida albicans, SC5314, 24 h): 5.4 µM

CCCCCCCCCC(=O)[C@@H]1C(=O)N[C@@H](CC(C)C)C(=O)N[C@H](C)C(=O)N2CCC[C@H]2C(=O)N[C@@H](C(C)C)C(=O)N[C@H]2CS[C@H]1CNC2=O
IC50 (Candida albicans [10]): 3.4 µM | MIC (Candida albicans [11]): > 200 µM

CCc1oc2ccccc2c1C(=O)c1cc(Br)c(O)c(Br)c1 [BENZBROMARONE]
IC50 (Candida albicans [2]; Candida albicans, SC5314, 24 h): 2 µM

Oc1c(Br)cc(Br)c2cccnc12 [BROXYQUINOLINE]
MBEC2 (Candida albicans [3]): 1.2 µM

C#CCN(C)CCCOc1ccc(Cl)cc1Cl.Cl [CLORGYLINE HYDROCHLORIDE]
MBIC50 (Candida albicans [1]): 24 µM

Cc1cc(OCCOCC[N+](C)(C)Cc2ccccc2)ccc1C(C)(C)CC(C)(C)C
IC50 (Candida albicans [2]; Candida albicans, SC5314, 24 h): 8.9 µM

CN(C)c1ccc(C(=C2C=CC(=[N+](C)C)C=C2)c2ccc(N(C)C)cc2)cc1.[Cl-] [GENTIAN VIOLET]
MBEC2 (Candida albicans [3]): 1.5 µM

C[C@H]1[C@@H](O)O[C@@H]2O[C@@]3(C)CC[C@H]4[C@H](C)CC[C@@H]1[C@@]24OO3 [ARTENIMOL]
fractional inhibitory concentration index (FICI) (Candida albicans [6]): 0.145

CC(C)c1ccc(CN2CCCC3(CCN(Cc4cccnc4)C3)C2=O)cc1 (centres undefined)
IC50 (Candida albicans [4]): 4.59 µM | CC50 at 24 h [5]: 62.7 to 104 µM

CC1OC(CC(=O)O)Cc2c(O)c3c(c(O)c21)C(=O)C=C(C1=CC(=O)c2c(O)c4c(c(O)c2C1=O)CC(CC(=O)O)OC4C)C3=O (centres undefined)
IC50 (Candida albicans [4]): 3.31 µM | CC50 at 24 h [5]: 96.1 µM

COc1ccc2cc1Oc1ccc(cc1)C[C@H]1c3cc(c(OC)cc3CCN1C)Oc1c(OC)c(OC)cc3c1[C@H](C2)N(C)CC3 [FANCHININ]
MIC80 (Candida albicans [12]): 64 mg/L (≈ 103 µM) | MIC80 (Candida albicans [13]): 64 mg/L (≈ 103 µM)

O=[N+]([O-])c1ccc(O)c2ncccc12 [NITROXOLINE]
IC50 (Candida albicans [14]): 1 to 5.8 µM | MBEC2 (Candida albicans [3]): 3.1 µM | IC50 (Candida albicans [15]): 1 to 5.8 µM | IC50 (Candida albicans [16]): 1 to 5.8 µM

O=C1c2cccc(O)c2C(=O)c2c(O)cccc21 [DANTHRON]
MBIC50 (Candida albicans [1]): 12 µM

CN(C)c1ccc(/C=C/c2cc(C(C)(C)C)[o+]c(C(C)(C)C)c2)cc1.[O-][Cl+3]([O-])([O-])[O-]
MIC (Candida [17]): 0.5 to 1 mg/L | MIC (Candida [18]): 0.2 to 6.25 mg/L

CCCCCCCCCCCCCCCC[N+](C)(C)CCN(Cc1ccc(OC)cc1)c1ncccn1 [THONZONIUM BROMIDE]
IC50 (Candida albicans [2]; Candida albicans, SC5314, 24 h): 13 µM
